Assay results from patent publication US10227357B2, “Compounds and methods for kinase modulation, and indications therefor” (Plexxikon Inc., priority 2012, dated 2019).
Read-outs that look alike come from different tables or passages of the source.

Key:
c-kit kinase = target: T1, c-kit kinase (Homo sapiens, UniProt P10721); experiment: c-Kit biochemical assay, AlphaScreen, 10 μM ATP
T1 construct: The c-kit (or kinase domain thereof) is an active kinase in AlphaScreen; poly-Histidine tag (in-house protein only) (cleaved yes); host or cells: E. coli BL21(DE3)RIL, co-expressed with PTP1B
T1 sequence (P10721 26-976): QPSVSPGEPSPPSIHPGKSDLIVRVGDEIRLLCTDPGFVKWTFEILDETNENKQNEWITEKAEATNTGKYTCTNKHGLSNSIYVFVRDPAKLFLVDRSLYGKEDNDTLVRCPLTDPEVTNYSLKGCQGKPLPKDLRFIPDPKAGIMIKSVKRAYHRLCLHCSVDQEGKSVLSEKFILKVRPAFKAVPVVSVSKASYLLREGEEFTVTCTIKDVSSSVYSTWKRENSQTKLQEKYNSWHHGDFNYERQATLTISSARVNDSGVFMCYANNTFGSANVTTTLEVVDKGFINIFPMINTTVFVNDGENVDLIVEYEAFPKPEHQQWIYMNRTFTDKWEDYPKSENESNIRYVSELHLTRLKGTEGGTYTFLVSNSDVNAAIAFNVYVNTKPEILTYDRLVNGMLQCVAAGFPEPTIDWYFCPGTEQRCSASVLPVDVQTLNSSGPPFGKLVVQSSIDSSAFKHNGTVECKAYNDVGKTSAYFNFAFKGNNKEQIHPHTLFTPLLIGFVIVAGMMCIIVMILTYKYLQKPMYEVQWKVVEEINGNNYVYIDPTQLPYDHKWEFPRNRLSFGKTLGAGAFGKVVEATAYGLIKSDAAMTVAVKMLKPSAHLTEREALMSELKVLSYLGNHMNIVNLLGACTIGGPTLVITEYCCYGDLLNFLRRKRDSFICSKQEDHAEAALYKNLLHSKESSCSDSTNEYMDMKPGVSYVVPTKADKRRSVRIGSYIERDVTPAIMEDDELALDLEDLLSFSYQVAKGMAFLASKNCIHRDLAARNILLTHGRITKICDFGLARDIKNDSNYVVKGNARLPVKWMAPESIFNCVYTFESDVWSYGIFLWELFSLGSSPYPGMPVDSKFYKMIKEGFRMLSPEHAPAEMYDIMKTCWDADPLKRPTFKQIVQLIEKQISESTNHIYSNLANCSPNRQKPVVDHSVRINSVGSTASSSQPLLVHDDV
Summary of the method: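 His-tagged c-Kit expressed in E. coli with co-expressed PTP1B (dephosphorylated), tag removed; 0.1 ng per reaction with biotinylated-peptide substrate in 50 mM HEPES pH 7.2, 5 mM MgCl2, 5 mM MnCl2, 5% DMSO, 10 μM ATP, 1 h at room temperature. Phosphorylation detected by AlphaScreen (streptavidin donor, PY20 acceptor beads); IC50 from 8-point 1:3 dilution series.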

c-kit mutant D816V = target: T2, c-kit mutant D816V (Homo sapiens, UniProt P10721, D816V/DEL694-753); experiment: c-Kit mutant D816V biochemical assay, AlphaScreen
T2 construct: residues 551-934, kinase insertion domain residues 694-753 deleted; 6x-histidine (N); made in house; host or cells: E. coli Arctic Express (DE3) RIL (Stratagene)
T2 sequence (P10721 with tags, fused parts or gaps DEL694-753/D816V): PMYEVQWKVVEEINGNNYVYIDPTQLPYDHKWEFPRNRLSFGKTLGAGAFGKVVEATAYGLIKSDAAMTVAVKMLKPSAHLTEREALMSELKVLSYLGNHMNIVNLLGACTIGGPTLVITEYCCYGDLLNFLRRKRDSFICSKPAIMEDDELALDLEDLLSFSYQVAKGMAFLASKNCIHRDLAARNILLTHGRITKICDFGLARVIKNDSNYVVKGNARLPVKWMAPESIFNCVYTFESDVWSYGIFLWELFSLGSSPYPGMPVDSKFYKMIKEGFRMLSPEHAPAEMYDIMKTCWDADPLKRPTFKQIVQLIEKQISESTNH
Summary of the method: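 Purified His-tagged c-Kit D816V (E. coli-expressed) assayed in 25 mM HEPES pH 7.2 with Mg/Mn, 5% DMSO and 10 μM ATP, 30 min at room temperature, 8-point 1:3 dilutions. Phosphorylation detected by AlphaScreen with streptavidin donor and PY20 acceptor beads; IC50 from signal versus concentration.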

[1] = c-kit biochemical inhibitory activity, read-out: Biochemical activity (IC50 μM) Kit
[2] = c-kit D816V biochemical inhibitory activity, read-out: Biochemical activity (IC50 μM) Kit D816V

Compound | IC50 (c-kit kinase; [1]) [µM] | IC50 (c-kit mutant D816V; [2]) [µM] | IC50 (c-kit kinase) [µM] | IC50 (c-kit mutant D816V; Biochemical activity (IC50 μM) Kit D816V) [µM]
Cc1ccc([C@H](C)NC(=O)N2CCN(c3ncnc4[nH]c(-c5ccc(F)cc5)cc34)CC2(C)C)cc1 [P-0719, 4-[6-(4-fluorophenyl)-7H-pyrrolo[2,3-d]pyrimidin-4-yl]-2,2-dimethyl-N-[(1S)-1-(p-tolyl)ethyl]piperazine-1-carboxamide] | 0.0001 to 1 | 0.0001 to 1 | – | –
COc1cc2ncnc(-c3ccc(NS(=O)(=O)c4ccc(Cl)cc4)cc3F)c2cc1OC [P-0268, 4-chloro-N-[4-(6,7-dimethoxyquinazolin-4-yl)-3-fluoro-phenyl]benzenesulfonamide] | 1 to 10 | 0.0001 to 1 | – | –
COc1cc(CNC(=O)N2CCN(c3ncnc4[nH]c(-c5cccnc5)cc34)CC2)ccn1 [P-0127, N-[(2-methoxy-4-pyridyl)methyl]-4-[6-(3-pyridyl)-7H-pyrrolo[2,3-d]pyrimidin-4-yl]piperazine-1-carboxamide] | 10 to 200 | 1 to 10 | – | –
COc1ccc(CNS(=O)(=O)c2ccc(-c3ncnc4[nH]c(-c5ccc(F)cc5)cc34)cc2)cc1 [P-0423, 4-[6-(4-fluorophenyl)-7H-pyrrolo[2,3-d]pyrimidin-4-yl]-N-[(4-methoxyphenyl)methyl]benzenesulfonamide] | 10 to 200 | 10 to 200 | – | –
Cc1cc2c(-c3ccc(NS(=O)(=O)c4ccc(F)cc4)cc3)ncnc2[nH]1 [P-0331, 4-fluoro-N-[4-(6-methyl-7H-pyrrolo[2,3-d]pyrimidin-4-yl)phenyl]benzenesulfonamide] | 1 to 10 | 1 to 10 | – | –
O=S(=O)(NC1CCN(c2ncnc3[nH]c(C4=CCCC4)cc23)CC1)c1ccc(OC(F)(F)F)cc1 [P-0669, N-[1-[6-(cyclopenten-1-yl)-7H-pyrrolo[2,3-d]pyrimidin-4-yl]-4-piperidyl]-4-(trifluoromethoxy)benzenesulfonamide] | 0.0001 to 1 | 0.0001 to 1 | – | –
C[C@H](NC(=O)N1CCN(c2ncnc3[nH]c(-c4ccc(F)cc4)cc23)C[C@H]1C)c1ccc(Cl)cc1 [P-0029, (2R)-N-[(1S)-1-(4-chlorophenyl)ethyl]-4-[6-(4-fluorophenyl)-7H-pyrrolo[2,3-d]pyrimidin-4-yl]-2-methyl-piperazine-1-carboxamide] | 10 to 200 | 0.0001 to 1 | – | –
O=S(=O)(Nc1ccc(-c2ncnc3[nH]c(C4=CCCC4)cc23)cc1)c1ccc(F)cc1 [P-0296, N-[4-[6-(cyclopenten-1-yl)-7H-pyrrolo[2,3-d]pyrimidin-4-yl]phenyl]-4-fluoro-benzenesulfonamide] | 1 to 10 | 0.0001 to 1 | – | –
O=C(N1CC=C(c2cc3ncnc(-c4ccc(NS(=O)(=O)C5CC5)cc4)c3s2)CC1)N1CCOCC1 [P-0554, N-[4-[6-[1-(morpholine-4-carbonyl)-3,6-dihydro-2H-pyridin-4-yl]thieno[3,2-d]pyrimidin-4-yl]phenyl]cyclopropanesulfonamide] | 0.0001 to 1 | 0.0001 to 1 | – | –
CCCNS(=O)(=O)N1CCN(c2ncnc3[nH]c(-c4ccccc4)cc23)CC1 [P-0241, 4-(6-phenyl-7H-pyrrolo[2,3-d]pyrimidin-4-yl)-N-propyl-piperazine-1-sulfonamide] | 1 to 10 | 0.0001 to 1 | – | –
O=C(NCc1ccc(Cl)cc1)N1CCN(c2ncnc3[nH]c(-c4ccccc4)cc23)CC1 [P-0215, N-[(4-chlorophenyl)methyl]-4-(6-phenyl-7H-pyrrolo[2,3-d]pyrimidin-4-yl)piperazine-1-carboxamide] | 10 to 200 | 10 to 200 | – | –
COc1ccc(S(=O)(=O)NC2CCN(c3ncnc4[nH]ccc34)CC2)cc1 [P-0540, 4-methoxy-N-[1-(7H-pyrrolo[2,3-d]pyrimidin-4-yl)-4-piperidyl]benzenesulfonamide] | 10 to 200 | 10 to 200 | – | –
O=S(=O)(Nc1ccc(-c2ncnc3[nH]c(-c4ccc(F)cc4)cc23)cc1)C1CC1 [P-0420, N-[4-[6-(4-fluorophenyl)-7H-pyrrolo[2,3-d]pyrimidin-4-yl]phenyl]cyclopropanesulfonamide] | 10 to 200 | 0.0001 to 1 | – | –
CC1(C)C=C(c2cc3c(-c4ccc(NS(=O)(=O)c5ccc(F)cc5)cc4)ncnc3[nH]2)CC(C)(C)O1 [P-0298, 4-fluoro-N-[4-[6-(2,2,6,6-tetramethyl-3H-pyran-4-yl)-7H-pyrrolo[2,3-d]pyrimidin-4-yl]phenyl]benzenesulfonamide] | 10 to 200 | 1 to 10 | – | –
COc1cccc(CNC(=O)N2CCN(c3ncnc4[nH]c(-c5cccnc5)cc34)CC2)n1 [P-0128, N-[(6-methoxy-2-pyridyl)methyl]-4-[6-(3-pyridyl)-7H-pyrrolo[2,3-d]pyrimidin-4-yl]piperazine-1-carboxamide] | 10 to 200 | 1 to 10 | – | –
Cn1cc(-c2cc3c(N4CCN(c5nc6ccccc6[nH]5)CC4)ncnc3[nH]2)cn1 [P-0010, 4-[4-(1H-benzimidazol-2-yl)piperazin-1-yl]-6-(1-methylpyrazol-4-yl)-7H-pyrrolo[2,3-d]pyrimidine] | 0.0001 to 1 | 0.0001 to 1 | – | –
C[C@H](NC(=O)N1CCN(c2ncnc3[nH]c(-c4cnn(C)c4)cc23)C[C@H]1C)c1ccc(F)cc1 [P-0725, (2R)-N-[(1S)-1-(4-fluorophenyl)ethyl]-2-methyl-4-[6-(1-methylpyrazol-4-yl)-7H-pyrrolo[2,3-d]pyrimidin-4-yl]piperazine-1-carboxamide] | 0.0001 to 1 | 0.0001 to 1 | – | –
Cc1cc2c(-c3ccc(NS(=O)(=O)c4ccc(C)s4)cc3F)ncnc2[nH]1 [P-0291, N-[3-fluoro-4-(6-methyl-7H-pyrrolo[2,3-d]pyrimidin-4-yl)phenyl]-5-methyl-thiophene-2-sulfonamide] | 1 to 10 | 0.0001 to 1 | – | –
COc1cccc([C@H](C)NC(=O)N2CCN(c3ncnc4cc(C5=CC(C)(C)NC(C)(C)C5)sc34)CC2)c1 [P-0574, N-[(1S)-1-(3-methoxyphenyl)ethyl]-4-[6-(2,2,6,6-tetramethyl-1,3-dihydropyridin-4-yl)thieno[3,2-d]pyrimidin-4-yl]piperazine-1-carboxamide] | 1 to 10 | 0.0001 to 1 | – | –
C[C@H](NC(=O)N1CCN(c2ncnc3cc(C4=CCN(S(C)(=O)=O)CC4)sc23)CC1(C)C)c1cccc(Cl)c1 [P-0553, N-[(1S)-1-(3-chlorophenyl)ethyl]-2,2-dimethyl-4-[6-(1-methylsulfonyl-3,6-dihydro-2H-pyridin-4-yl)thieno[3,2-d]pyrimidin-4-yl]piperazine-1-carboxamide] | 1 to 10 | 0.0001 to 1 | – | –
C[C@H]1CN(c2ncnc3[nH]c(-c4ccncc4)cc23)CCN1C(=O)NCc1ccc(Cl)cc1 [P-0044, (2S)-N-[(4-chlorophenyl)methyl]-2-methyl-4-[6-(4-pyridyl)-7H-pyrrolo[2,3-d]pyrimidin-4-yl]piperazine-1-carboxamide] | 0.0001 to 1 | 0.0001 to 1 | – | –
Cc1ccc(S(=O)(=O)Nc2ccc(-c3ncnc4[nH]c(C)nc34)cc2)cc1 [P-0450, 4-methyl-N-[4-(8-methyl-9H-purin-6-yl)phenyl]benzenesulfonamide] | 10 to 200 | 1 to 10 | – | –
Cc1ccc(-c2cc3c(N4CCN(c5nc6ccccc6[nH]5)CC4)ncnc3[nH]2)cn1 [P-0013, 4-[4-(1H-benzimidazol-2-yl)piperazin-1-yl]-6-(6-methyl-3-pyridyl)-7H-pyrrolo[2,3-d]pyrimidine] | 1 to 10 | 0.0001 to 1 | – | –
CC(=O)Nc1ccc(-c2cc3c(N4CCN(C(=O)Nc5ccc(OC(F)(F)F)cc5)CC4)ncnc3[nH]2)cn1 [P-0084, 4-[6-(6-acetamido-3-pyridyl)-7H-pyrrolo[2,3-d]pyrimidin-4-yl]-N-[4-(trifluoromethoxy)phenyl]piperazine-1-carboxamide] | 1 to 10 | 0.0001 to 1 | – | –
CS(=O)(=O)Nc1ccc(-c2ncnc3[nH]c(-c4cc(F)ccc4F)cc23)c(F)c1 [P-0339, N-[4-[6-(2,5-difluorophenyl)-7H-pyrrolo[2,3-d]pyrimidin-4-yl]-3-fluoro-phenyl]methanesulfonamide] | 1 to 10 | 0.0001 to 1 | – | –
CN(C)c1ccc(NC(=O)N2CCN(c3ncnc4[nH]c(-c5ccc(C#N)cc5)cc34)CC2)cc1 [P-0070, 4-[6-(4-cyanophenyl)-7H-pyrrolo[2,3-d]pyrimidin-4-yl]-N-(4-dimethylaminophenyl)piperazine-1-carboxamide] | 1 to 10 | 1 to 10 | – | –
COc1ccc(S(=O)(=O)Nc2ccc(-c3ncnc4[nH]c(C)cc34)cc2)cc1 [P-0326, 4-methoxy-N-[4-(6-methyl-7H-pyrrolo[2,3-d]pyrimidin-4-yl)phenyl]benzenesulfonamide] | 1 to 10 | 1 to 10 | – | –
O=C(Nc1cccnc1)NC1CCN(c2ncnc3[nH]ccc23)CC1 [P-0508, 1-(3-pyridyl)-3-[1-(7H-pyrrolo[2,3-d]pyrimidin-4-yl)-4-piperidyl]urea] | 10 to 200 | 10 to 200 | – | –
CCCCS(=O)(=O)Nc1ccc(-c2ncnc3[nH]c(C)cc23)cc1 [P-0288, N-[4-(6-methyl-7H-pyrrolo[2,3-d]pyrimidin-4-yl)phenyl]butane-1-sulfonamide] | – | – | 10 to 200 | 1 to 10
Cn1cc(-c2cc3c(N4CCC(NS(=O)(=O)c5ccc(Cl)cc5)CC4)ncnc3[nH]2)cn1 [P-0491, 4-chloro-N-[1-[6-(1-methylpyrazol-4-yl)-7H-pyrrolo[2,3-d]pyrimidin-4-yl]-4-piperidyl]benzenesulfonamide] | 1 to 10 | 0.0001 to 1 | – | –
